Data on 16 molecules can be found in publication PMC12561453, “Synthesis and Structure–Activity Relationship Study of 2-(amino)quinazolin-4(3H)-one Derivatives as Potential Inhibitors of Methicillin-Resistant Staphylococcus aureus (MRSA)” (Antibiotics, 2025).

One experiment concerns S. aureus USA300 JE2. Kind of experiment: Broth microdilution dose-response, S. aureus USA300 JE2 (MRSA). The format is cell-based, Staphylococcus aureus. Conditions: for MIC50: Staphylococcus aureus, USA300, USA300 JE2, methicillin-resistant, OD600 after 18–24 h, read-out: USA300 MIC50; for antibacterial activity (in words): JE2; for fold better antibacterial activity against JE2 compared to compound 1: JE2, versus compound 1. An excerpt:
(§1) The antistaphylococcal activities (MIC50) of the synthesized compounds were examined via a previously described broth microdilution method against two S. aureus strains: ATCC25923, a methicillin-sensitive reference strain, and JE2, a methicillin-resistant strain of the USA300 lineage (Figure 2, Table 1).
(§2) Staphylococcus aureus USA300, a methicillin-resistant strain, was obtained from the Nebraska Transposon Mutant Library. Staphylococcus aureus ATCC25923, a pan-drug-susceptible strain, was purchased from the American Type Culture Collection (ATCC) (Manassas, VA, USA). S. aureus strains were grown in Cation-Adjusted Mueller–Hinton broth (CAMHB) (Difco) at 37 °C. Bacterial strain stocks were stored in vials with 25% glycerol at −80 °C. For each experiment, overnight cultures were prepared by inoculating a frozen bacterial strain stock in 10 mL of CAMHB medium and incubating at 37 °C in a shaking incubator (180 rpm). For the preliminary screen and dose–response experiments, 100 µL of overnight culture was inoculated into 10 mL of fresh CAMHB and incubated for 3 h at 37 °C and 180 rpm.
(§3) Antibiotic susceptibility assay was tested according to modified Clinical and Laboratory Standards Institute (CLSI) laboratory guidelines for broth microdilution assays. S. aureus was cultured in CAMHB, and bacterial cells were prepared with an OD600 of 0.005. DRC plates were prepared by adding 40 µL of bacterial suspension to each well, where 10 µL of each compound had been dispensed for […] of two-fold serial dilutions starting at […]. After incubation of the plates at 37 °C for 18–24 h with 5% CO2, the growth of S. aureus was detected by measuring the OD600nm using an Ensight (Revvity) spectrometer (Revvity, Waltham, MA, USA).
(§4) Figure 2 In vitro antibacterial activities of 2-(amino)quinazolin-4(3H)-one derivatives. S. aureus ATCC25923 (blue) and USA300 JE (orange) strains were incubated with serial dilutions of 2-(amino)quinazolin-4(3H)-one derivatives (0.19–100 µM) for 18–24 h. The dose–responses were observed by measuring OD600nm. The plots were drawn from each group of strains with nonlinear curve fits.

The next experiment has as its system S. aureus ATCC25923. Kind of experiment: Broth microdilution dose-response, S. aureus ATCC25923. Conditions: for MIC50: OD600 after 18–24 h, read-out: ATCC25923 MIC50; for antibacterial activity (in words): ATCC25923. In kind it is cell-based, Staphylococcus aureus.
Text: as §1, §2, §3, §4

Experiment [1] relates to S. aureus USA300 JE2 expressing GFP in H460 cells. Kind of experiment: microbe, parasite or virus in culture. The format is cell-based, Staphylococcus aureus. The settings on record: for MIC50: Staphylococcus aureus, USA300, 24 h, read-out: H460 Assay MIC50 (MIC50 ex vivo). An excerpt:
Staphylococcus aureus, including MRSA, can invade host cells and replicate intracellularly, which complicates treatment with current therapies. To evaluate the intracellular antibacterial activities of the selected compounds, the fifteen compounds tested for cytotoxicity were further assessed using a cell infection model based on H460 human lung epithelial cells, which mimic MRSA-mediated pneumonia. H460 cells were infected with the USA300 JE2 expressing green fluorescent protein (GFP) and subsequently treated with the compounds in a dose–response manner, along with three reference antibiotics: vancomycin, linezolid, and erythromycin. After 24 h of incubation, bacterial loads were quantified by measuring GFP fluorescence in each well. MIC50 values determined in the H460 infection model (MIC50 ex vivo) were generally higher than those obtained from the in vitro tests, likely due to either limited compound penetration into host cells or reduced antibacterial effect of the compounds against intracellular bacteria (Figure 3, Table 2). […] These findings underscore the potential of compound 6y as a promising lead for further development as a novel antistaphylococcal agent.
To see the ex vivo antimicrobial activity of the compound, the human lung carcinoma cell line H460 (ATCC #HTB-177) was used. The H460 cells were cultured in RPMI 1640 medium with 10% fetal bovine serum (FBS) and in a 96-well microplate at 37 °C and 5% CO2. Cell lines were cultured for 2 days, until they reached full confluence in the well. S. aureus (USA300-containing and pCM29-encoding GFP) was cultured in CAMHB with 10 µg/mL of chloramphenicol, and bacterial cells were harvested. After washing the bacterial cells with phosphate-buffered saline (PBS) and suspending them in RPMI, infected H460 cells with S. aureus (1 × 10^7 CFU) and incubated them for 2.5 h. Samples were washed three times with PBS. Then, cells were treated with gentamicin (50 µg/mL of gentamicin in RPMI) and incubated for 1 h. Samples were washed with PBS, RPMI-containing diluted compounds were added, and then they were incubated at 37 °C in 5% CO2 for 24 h. To detect the Green fluorescent protein (GFP) signal, an Ensight multimode plate reader and Opera Phenix Plus (Revvity, Waltham, MA, USA) were used.
Ex vivo infection model images were generated using the Opera Phenix Plus high-content imaging system. Images were obtained by a confocal microscope with a 20× water objective lens. To detect the bacteria fluorescence signal (GFP), the Alexa 488 channel (488 nm laser/500–550 filter, Thermo Fisher Scientific, Waltham, MA, USA) was used, and the brightfield channel was used for H460 cell images.
Figure 3 Antibacterial activities of 2-(amino)quinazolin-4(3H)-one derivatives in the H460 infection model. H460 cells were infected with S. aureus USA300 JE strain expressing GFP, followed by treatment with serial dilutions of 2-(amino)quinazolin-4(3H)-one derivatives. After incubation at 37 °C for 24 h with 5% CO2, fluorescence signals of the bacteria were detected at 488 nm/510 nm using a multilabel plate reader.

The test system of the next experiment is HepG2 cells. Kind of experiment: In vitro cytotoxicity, HepG2 viability (resazurin). Conditions: Homo sapiens, HepG2, 24 h, HepG2 cells, 24 h, resazurin; read-out: HepG2 IC50. The format is cell-based, human. How it is done: The in vitro cytotoxicity of the compounds was evaluated by measuring the viability of HepG2 cells, a human liver cell line, following treatment in a dose–response manner, as previously described. […] The efficacy window was calculated as the ratio of IC50 in HepG2 cells to MIC50 against JE2.
To test cytotoxicity with compounds, the human liver cell line HepG2 (ATCC #HB-8065) was used for the assay. HepG2 was cultured in DMEM with 10% fetal bovine serum (FBS) in a 96-well microplate at 37 °C and 5% CO2. HepG2 cells were seeded at a final density of 5 × 10^4 cells/well, and DMEM-containing diluted compounds were added and incubated on the plates at 37 °C in 5% CO2 for 24 h. After that, resazurin (final concentration, 0.1 mg/mL) was added to each well and incubated on the plates at 37 °C in 5% CO2 for 2 h. To detect the fluorescence at 530 nm excitation and 590 nm emission, an Ensight multimode plate reader was used (Revvity, Waltham, MA, USA).

[2] abbreviates: Staphylococcus aureus, ATCC25923, methicillin-sensitive strain.

Values after ≈ are worked out from the molar mass of the structure shown. Like-named read-outs stand apart in the source and are kept apart here.

With `O=c1[nH]c(Nc2cc(Cl)cc(Cl)c2)nc2c(Cl)c(Cl)ccc12` [6a, 7,8-Dichloro-2-((3,5-dichlorophenyl)amino)quinazolin-4(3H)-one], the results for the MIC50 with S. aureus USA300 JE2 and with S. aureus ATCC25923 (setting [2]) were 6.9 µM (≈ 2.59 µg/mL) and 10.8 µM (≈ 4.05 µg/mL), respectively.
In the case of `O=c1[nH]c(Nc2cc(Cl)cc(Cl)c2)nc2cc(N3CCOCC3)ccc12` [6b, 2-((3,5-Dichlorophenyl)amino)-7-morpholinoquinazolin-4(3H)-one], the “antibacterial activity (in words)” value in the experiment on S. aureus USA300 JE2 and with S. aureus ATCC25923 was “complete abolition of antibacterial activity” throughout. Also, the MIC50 in the experiment with S. aureus USA300 JE2 and with S. aureus ATCC25923 (setting [2]) was greater than 100 µM in each case.
Regarding `COc1cc2nc(Nc3cc(Cl)cc(Cl)c3)[nH]c(=O)c2cc1OC` [6c, 2-((3,5-Dichlorophenyl)amino)-6,7-dimethoxyquinazolin-4(3H)-one], the “antibacterial activity (in words)” value in the experiment on S. aureus USA300 JE2 and in the experiment on S. aureus ATCC25923 was “complete abolition of antibacterial activity” each time. The MIC50 with S. aureus USA300 JE2 and with S. aureus ATCC25923 (setting [2]) was greater than 100 µM in each case.
On to `COc1ccc2c(=O)[nH]c(Nc3cc(Cl)cc(Cl)c3)nc2c1` [6d, 2-((3,5-Dichlorophenyl)amino)-7-methoxyquinazolin-4(3H)-one], for which the “antibacterial activity (in words)” value in the experiment with S. aureus USA300 JE2 and in the experiment on S. aureus ATCC25923 was “complete abolition of antibacterial activity” throughout. The MIC50 in the experiment with S. aureus USA300 JE2 and with S. aureus ATCC25923 (setting [2]) was greater than 100 µM in each case.
`O=c1[nH]c(Nc2cc(Cl)cc(Cl)c2)nc2cc([N+](=O)[O-])ccc12` [6e, 2-((3,5-Dichlorophenyl)amino)-7-nitroquinazolin-4(3H)-one]: the MIC50 is 68.8 µM (≈ 24.2 µg/mL) in experiment [1], 3 to 6 µM (≈ 1.05 to 2.11 µg/mL) in the experiment on S. aureus ATCC25923 (setting [2]) and 3.0 µM (≈ 1.05 µg/mL) in the experiment with S. aureus ATCC25923 (methicillin-sensitive strain). The “fold better antibacterial activity against JE2 compared to compound 1” value in the experiment with S. aureus USA300 JE2 is on record as “at least 6.5 fold”. The IC50 in the experiment with HepG2 cells was 9.3 µM.
For `O=c1[nH]c(Nc2cc(Cl)cc(Cl)c2)nc2c(Br)cc(Br)cc12` [6f, 6,8-Dibromo-2-((3,5-dichlorophenyl)amino)quinazolin-4(3H)-one], in that order: 8.7 µM (≈ 4.04 µg/mL), 3 to 6 µM (≈ 1.39 to 2.78 µg/mL), 6.0 µM (≈ 2.78 µg/mL), “at least 6.5 fold” and 9.6 µM.
Regarding `O=c1[nH]c(Nc2ccccc2)nc2cc(Cl)ccc12` [6m, 7-Chloro-2-(phenylamino)quinazolin-4(3H)-one], the “antibacterial activity (in words)” value in the experiment with S. aureus USA300 JE2 and in the experiment with S. aureus ATCC25923 was “complete loss of activity” throughout. The MIC50 in the experiment on S. aureus USA300 JE2 and with S. aureus ATCC25923 (setting [2]) was greater than 100 µM each time.
Take `O=c1[nH]c(Nc2cccc(F)c2)nc2cc(Cl)ccc12` [6n, 7-Chloro-2-((3-fluorophenyl)amino)quinazolin-4(3H)-one]: the MIC50 in experiment [1] worked out at 43.8 µM (≈ 12.7 µg/mL). The IC50 in the experiment with HepG2 cells is 19.7 µM.
With `O=c1[nH]c(Nc2ccc(F)cc2F)nc2cc(Cl)ccc12` [6o, 7-Chloro-2-((2,4-difluorophenyl)amino)quinazolin-4(3H)-one], the “antibacterial activity (in words)” value in the experiment with S. aureus USA300 JE2 and in the experiment with S. aureus ATCC25923 was “complete loss of activity” throughout. The MIC50 in the experiment with S. aureus USA300 JE2 and in the experiment on S. aureus ATCC25923 (setting [2]) was greater than 100 µM each time.
Consider `COc1cccc(Nc2nc3cc(Cl)ccc3c(=O)[nH]2)c1` [6p, 7-Chloro-2-((3-methoxyphenyl)amino)quinazolin-4(3H)-one], for which the “antibacterial activity (in words)” value in the experiment on S. aureus USA300 JE2 and in the experiment with S. aureus ATCC25923 was “Decreased antibacterial activities” each time. The MIC50 stood at 24.9 µM (≈ 7.51 µg/mL) with S. aureus USA300 JE2 and 35.1 µM (≈ 10.6 µg/mL) in the experiment with S. aureus ATCC25923 (setting [2]).
As to `O=c1[nH]c(Nc2cccc(C(F)(F)F)c2)nc2cc(Cl)ccc12` [6r, 7-Chloro-2-((3-(trifluoromethyl)phenyl)amino)quinazolin-4(3H)-one], the MIC50 in experiment [1] was 35.8 µM (≈ 12.2 µg/mL); in the experiment on S. aureus ATCC25923 (setting [2]), 2.1 to 4.5 µM (≈ 0.713 to 1.53 µg/mL); in the experiment on S. aureus ATCC25923 (methicillin-sensitive strain), 3.1 µM (≈ 1.05 µg/mL). In addition, the IC50 in the experiment on HepG2 cells was determined as 15.1 µM.
Consider `O=c1[nH]c(NCC2CCCCC2)nc2cc(Cl)ccc12` [6s, 7-Chloro-2-((cyclohexylmethyl)amino)quinazolin-4(3H)-one], for which the “antibacterial activity (in words)” value in the experiment on S. aureus USA300 JE2 and in the experiment with S. aureus ATCC25923 was “Decreased antibacterial activities” in each case. Besides, the MIC50 in the experiment with S. aureus USA300 JE2 was found to be 18.1 µM (≈ 5.28 µg/mL); with S. aureus ATCC25923 (setting [2]), 35.5 µM (≈ 10.4 µg/mL).
For the molecule `O=c1[nH]c(Nc2ccccc2Cl)nc2cc(Cl)ccc12` [6t, 7-Chloro-2-((2-chlorophenyl)amino)quinazolin-4(3H)-one], the “antibacterial activity (in words)” value in the experiment on S. aureus USA300 JE2 and with S. aureus ATCC25923 was “complete loss of activity” throughout. Moreover, the MIC50 in the experiment with S. aureus USA300 JE2 and in the experiment on S. aureus ATCC25923 (setting [2]) was greater than 100 µM each time.
On to `O=c1[nH]c(NCc2cc(F)cc(F)c2)nc2cc(Cl)ccc12` [6w, 7-Chloro-2-((3,5-difluorobenzyl)amino)quinazolin-4(3H)-one], for which the “antibacterial activity (in words)” value in the experiment with S. aureus USA300 JE2 and with S. aureus ATCC25923 was “complete loss of activity” in each case. Moreover, the MIC50 with S. aureus USA300 JE2 and with S. aureus ATCC25923 (setting [2]) was greater than 100 µM throughout.
In the case of `O=c1[nH]c(Nc2cc(Cl)cc(Cl)c2)nc2c(Cl)ccc(Cl)c12` [compound 1, 5,8-Dichloro-2-((3,5-dichlorophenyl)amino)quinazolin-4(3H)-one], the MIC50 in the experiment on S. aureus USA300 JE2 was 12.9 µM (≈ 4.84 µg/mL); in the experiment on S. aureus ATCC25923 (setting [2]), 3.9 µM (≈ 1.46 µg/mL).
For `CC(=O)NC[C@H]1CN(c2ccc(N3CCOCC3)c(F)c2)C(=O)O1` [linezolid, reference compound], the “H460 Assay MIC50 (MIC50 ex vivo)” value in experiment [1] (H460 cells infected with USA300 JE2-GFP, 24 h, GFP fluorescence) is 1.2 µM.
